In brackets after ≈: the same amount, converted by molar mass. Where two headings read alike, the source gives them in different places.
Columns and labels:
[1] = test system: non-CF clinical isolates of P. aeruginosa; test: MIC vs non-CF clinical isolates of P. aeruginosa; format: cell-based; conditions: Pseudomonas aeruginosa, MIC key class
Method: Bacterial isolates were cultivated from −70° C. frozen stocks by two consecutive overnight passages at 35° C. in ambient air on 5% blood agar (Remel, Lenexa, Kans.). Clinical isolates tested were from a collection composed of isolates collected during clinical trials and recent clinical isolates obtained from various geographically diverse hospitals in the US. Quality control and primary panel strains were from the American Type Culture Collection (ATCC; Rockville, Md.), with the exception of P. aeruginosa PAO200, a strain with a deletion of the mexABoprM genes that was received from Dr. H. Schweizer. […] Strain Z61 (ATCC 35151) is also hypersusceptible to antibacterials. It is thought that the hypersusceptibility of this strain is the result of increased permeability of its outer membrane (Angus B L et al, Antimicrobial Agents and Chemotherapy 1982 21,299-309: Outer membrane permeability in Pseudomonas aeruginosa: Comparison of a wild-type with an antibacterial-supersusceptible mutant).
(§1) Minimum Inhibitory Concentrations (MICs) were determined by the broth microdilution method in accordance with the National Committee for Clinical Laboratory Standards (NCCLS) guidelines. In brief, organism suspensions were are adjusted to a 0.5 McFarland standard to yield a final inoculum between 3×10^5 and 7×10^5 colony-forming units (CFU)/mL. Drug dilutions and inocula were made in sterile, cation adjusted Mueller-Hinton Broth (Remel). An inoculum volume of 100 μl was added to wells containing 100 μl of broth with 2-fold serial dilutions of drug. All inoculated microdilution trays were incubated in ambient air at 35° C. for 18-24 hours. Following incubation, the lowest concentration of the drug that prevented visible growth was recorded as the MIC. Performance of the assay was monitored by the use of laboratory quality-control strains against tobramycin, that has a defined MIC spectrum, in accordance with NCCLS guidelines.

Proteus mirabilis = test: MIC vs enteric organisms: Proteus mirabilis; format: cell-based; conditions: P. mir., MIC key class
Method: (§2) Bacterial isolates were cultivated from −70° C. frozen stocks by two consecutive overnight passages at 35° C. in ambient air on 5% blood agar (Remel, Lenexa, Kans.). Clinical isolates tested were from a collection composed of isolates collected during clinical trials and recent clinical isolates obtained from various geographically diverse hospitals in the US. Quality control and primary panel strains were from the American Type Culture Collection (ATCC; Rockville, Md.), with the exception of P. aeruginosa PAO200, a strain with a deletion of the mexABoprM genes that was received from Dr. H. Schweizer.
as §1, with “MIC.” for “MIC. Performance of the assay was monitored by the use of laboratory quality-control strains against tobramycin, that has a defined MIC spectrum, in accordance with NCCLS guidelines.”

Serratia marcescens = test: MIC vs enteric organisms: Serratia marcescens; format: cell-based; conditions: S. marc., MIC key class
Method: as §2
as §1, with “MIC.” for “MIC. Performance of the assay was monitored by the use of laboratory quality-control strains against tobramycin, that has a defined MIC spectrum, in accordance with NCCLS guidelines.”

Enterobacter aerogenes = test: MIC vs enteric organisms: Enterobacter aerogenes; format: cell-based; conditions: Klebsiella aerogenes; E. aer.; MIC key class
Method: as §2
as §1, with “MIC.” for “MIC. Performance of the assay was monitored by the use of laboratory quality-control strains against tobramycin, that has a defined MIC spectrum, in accordance with NCCLS guidelines.”

Klebsiella oxytoca = test: MIC vs enteric organisms: Klebsiella oxytoca; format: cell-based; conditions: K. oxy., MIC key class
Method: as §2
as §1, with “MIC.” for “MIC. Performance of the assay was monitored by the use of laboratory quality-control strains against tobramycin, that has a defined MIC spectrum, in accordance with NCCLS guidelines.”

[2] = test system: Acinetobacter calcoaceticus; test: MIC vs non-fermenting organisms: Acinetobacter calcoaceticus; format: cell-based; conditions: Acinet. calc., MIC key class
Method: as §2
as §1, with “MIC.” for “MIC. Performance of the assay was monitored by the use of laboratory quality-control strains against tobramycin, that has a defined MIC spectrum, in accordance with NCCLS guidelines.”

Klebsiella pneumoniae = test: MIC vs enteric organisms: Klebsiella pneumoniae; format: cell-based; conditions: K. pneu., MIC key class
Method: as §2
as §1, with “MIC.” for “MIC. Performance of the assay was monitored by the use of laboratory quality-control strains against tobramycin, that has a defined MIC spectrum, in accordance with NCCLS guidelines.”

[3] = test system: Pseudomonas aeruginosa cystic fibrosis isolate 3317; test: MIC vs cystic fibrosis isolate of P. aeruginosa 3317 (resistant to aztreonam); format: cell-based; conditions: strain 3317, Aztr. R, LpxC inhibitors, MIC key class
Method: as §2
as §1, with “MIC.” for “MIC. Performance of the assay was monitored by the use of laboratory quality-control strains against tobramycin, that has a defined MIC spectrum, in accordance with NCCLS guidelines.”

Enterobacter cloacae = test: MIC vs enteric organisms: Enterobacter cloacae; format: cell-based; conditions: E. clo., MIC key class
Method: as §2
as §1, with “MIC.” for “MIC. Performance of the assay was monitored by the use of laboratory quality-control strains against tobramycin, that has a defined MIC spectrum, in accordance with NCCLS guidelines.”

Alcaligenes xylosoxidans = test: MIC vs non-fermenting organisms: Alcaligenes xylosoxidans; format: cell-based; conditions: Achromobacter xylosoxidans; Alcal. xyl; MIC key class
Method: as §2
as §1, with “MIC.” for “MIC. Performance of the assay was monitored by the use of laboratory quality-control strains against tobramycin, that has a defined MIC spectrum, in accordance with NCCLS guidelines.”

[4] = test system: Pseudomonas aeruginosa cystic fibrosis isolate 3236; test: MIC vs cystic fibrosis isolate of P. aeruginosa 3236 (sensitive to most antibacterials); format: cell-based; conditions: strain 3236, Sensitive, LpxC inhibitors, MIC key class
Method: as §2
as §1, with “MIC.” for “MIC. Performance of the assay was monitored by the use of laboratory quality-control strains against tobramycin, that has a defined MIC spectrum, in accordance with NCCLS guidelines.”

[5] = test system: Pseudomonas aeruginosa cystic fibrosis isolate 2196; test: MIC vs cystic fibrosis isolate of P. aeruginosa 2196 (resistant to ciprofloxacin); format: cell-based; conditions: strain 2196, Cipro R, LpxC inhibitors, MIC key class
Method: as §2
as §1, with “MIC.” for “MIC. Performance of the assay was monitored by the use of laboratory quality-control strains against tobramycin, that has a defined MIC spectrum, in accordance with NCCLS guidelines.”

Burkholderia cepacia = test: MIC vs non-fermenting organisms: Burkholderia cepacia; format: cell-based; conditions: Burkholderia cepacia, B. cepacia; MIC key class; read-out: MIC
Method: as §2
as §1, with “MIC.” for “MIC. Performance of the assay was monitored by the use of laboratory quality-control strains against tobramycin, that has a defined MIC spectrum, in accordance with NCCLS guidelines.”

P. aeruginosa LpxC = target: T1, P. aeruginosa LpxC (Pseudomonas aeruginosa, UniProt P47205); test: P. aeruginosa LpxC Inhibition Assay; format: biochemical; conditions: 2 nM P. aeruginosa LpxC, 90 min, room temperature; read-out: IC50 (nM), Enzyme inhibitory activity
T1 sequence (P47205 1-303): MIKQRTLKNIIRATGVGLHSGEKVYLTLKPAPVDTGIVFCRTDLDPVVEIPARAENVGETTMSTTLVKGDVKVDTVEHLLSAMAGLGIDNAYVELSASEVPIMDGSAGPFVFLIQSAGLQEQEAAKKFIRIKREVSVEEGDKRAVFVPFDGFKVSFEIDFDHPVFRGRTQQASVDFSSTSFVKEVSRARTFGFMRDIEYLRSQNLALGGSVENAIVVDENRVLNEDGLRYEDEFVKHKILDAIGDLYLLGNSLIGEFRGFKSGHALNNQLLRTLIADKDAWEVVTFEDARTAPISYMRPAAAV
Method: The assay followed the general method of Hyland et al (Journal of Bacteriology 1997 179, 2029-2037: Cloning, expression and purification of UDP-3-O-acyl-GlcNAc deacetylase from Pseudomonas aeruginosa: a metalloamidase of the lipid A biosynthesis pathway) and the radiolabeling procedure is according to Kline et al. supra. Briefly, samples were incubated with 2 nM P. aeruginosa LpxC and 150 nM [3H-Ac]-UDP-3-OR-3-hydroxydecanoyl)-GlcNAc in a total volume of 50 uL for 90 min at room temperature. Reactions were carried out in 96-well polypropylene plates in 50 mM sodium phosphate buffer, pH 7.5, containing 1 mg/mL BSA. Reactions were stopped by the addition of 180 uL of a 3% suspension of activated charcoal powder in 100 mM sodium acetate, pH 7.5. Supernatants were clarified by centrifugation. A portion of the clarified supernatant, containing the enzymatically released [3H]-acetate, was transferred to opaque white 96-well plates containing scintillation fluid. The radioactivity was measured in a Perkin-Elmer/Wallac Trilux Microbeta counter.

Escherichia coli = test: MIC vs enteric organisms: Escherichia coli clinical isolates; format: cell-based; conditions: Escherichia coli, MIC key class, read-out: MIC
Method: as §2
as §1, with “MIC.” for “MIC. Performance of the assay was monitored by the use of laboratory quality-control strains against tobramycin, that has a defined MIC spectrum, in accordance with NCCLS guidelines.”

Structure (SMILES) | MIC ([1]; P. aer 12307) [µg/mL] | MIC ([1]; P. aer 27853) [µg/mL] | MIC ([1]; P. aer psa-6b) [µg/mL] | MIC ([1]; PAO1, P. aer. PAO1) [µg/mL] | MIC (Proteus mirabilis) [µg/mL] | MIC (Serratia marcescens) [µg/mL] | MIC (Enterobacter aerogenes) [µg/mL] | MIC (Klebsiella oxytoca) [µg/mL] | MIC [2] [µg/mL] | MIC (Klebsiella pneumoniae) [µg/mL] | MIC [3] [µg/mL] | MIC (Enterobacter cloacae) [µg/mL] | MIC (Alcaligenes xylosoxidans) [µg/mL] | MIC [4] [µg/mL] | MIC [5] [µg/mL] | MIC (Burkholderia cepacia) [µg/mL] | IC50 (P. aeruginosa LpxC) [nM] | MIC (Escherichia coli; E. coli 1619) [µg/mL] | MIC (Escherichia coli; E. coli 2788) [µg/mL]
C[C@@H](O)[C@H](NC(=O)c1ccc(-c2ccc(Br)cc2)cc1)C(=O)NO [Example 315, 4′-bromo-N-{(1S,2R)-2-hydroxy-1-[(hydroxyamino)carbonyl]propyl}-1,1′-biphenyl-4-carboxamide] | < 6.25 | < 6.25 | < 6.25 | < 6.25 | > 50 | 6.25 to 50 (≈ 15.9 to 127 µM) | > 50 | > 50 | > 50 | > 50 | < 6.25 | < 6.25 | 6.25 to 50 (≈ 15.9 to 127 µM) | < 6.25 | < 6.25 | < 6.25 | < 100 | < 6.25 | < 6.25
NC[C@H](NC(=O)c1ccc(C#CC#Cc2ccccc2)cc1)C(=O)NO [Example 481, N-[(1S)-1-(aminomethyl)-2-(hydroxyamino)-2-oxoethyl]-4-(4-phenylbuta-1,3-diynyl)benzamide] | < 6.25 | < 6.25 | < 6.25 | < 6.25 | < 6.25 | < 6.25 | > 50 | < 6.25 | > 50 | < 6.25 | < 6.25 | < 6.25 | > 50 | < 6.25 | < 6.25 | 6.25 to 50 (≈ 18 to 144 µM) | < 100 | < 6.25 | < 6.25
NC[C@H](NC(=O)c1ccc(C#Cc2ccc(NC(=O)CNC3CC3)cc2)cc1)C(=O)NO [Example 516, N-[(1S)-1-(aminomethyl)-2-(hydroxyamino)-2-oxoethyl]-4-[(4-{[(cyclopropylamino)acetyl]amino}phenyl)ethynyl]benzamide] | < 6.25 | < 6.25 | < 6.25 | – | > 50 | < 6.25 | > 50 | > 50 | > 50 | > 50 | < 6.25 | 6.25 to 50 (≈ 14.4 to 115 µM) | > 50 | < 6.25 | < 6.25 | > 50 | < 100 | < 6.25 | 6.25 to 50 (≈ 14.4 to 115 µM)
C[C@@H](O)[C@H](NC(=O)c1ccc(C#CC#Cc2ccc(NC(=O)CNc3ccccc3)cc2)cc1)C(=O)NO [Example 777, N-{(1S,2R)-2-hydroxy-1-[(hydroxyamino)carbonyl]propyl}-4-[4-(4-{[(phenylamino)acetyl]amino}phenyl)buta-1,3-diynyl]benzamide] | < 6.25 | < 6.25 | 6.25 to 50 (≈ 12.2 to 97.9 µM) | – | < 6.25 | < 6.25 | 6.25 to 50 (≈ 12.2 to 97.9 µM) | < 6.25 | < 6.25 | < 6.25 | < 6.25 | < 6.25 | 6.25 to 50 (≈ 12.2 to 97.9 µM) | < 6.25 | < 6.25 | < 6.25 | < 100 | < 6.25 | < 6.25
